From the supplement of paper PMC8967900

Assays:
Test in all cases: selective drug sensitivity score (sDSS, relative to normal bone marrow) (sDSS (score)); higher = more potent and effective on the cell line relative to normal bone marrow cells
Conditions in all cases: 72 h
CCRF-HSB2 = system: CCRF-HSB2
NALL-1 = system: NALL-1
COG-LL-402h = system: COG-LL-402h
SUP-B15 = system: SUP-B15
KARPAS-45 = system: KARPAS-45
MOLT-4 = system: MOLT-4
PF-382 = system: PF-382
P30-OHKUBO = system: P30-OHKUBO
HPB-ALL = system: HPB-ALL
ALL-SIL = system: ALL-SIL
MN-60 = system: MN-60
RCH-ACV = system: RCH-ACV
SEM cells = system: SEM cells
MHH-CALL-2 = system: MHH-CALL-2
LC4-1 = system: LC4-1
KASUMI-10 = system: KASUMI-10
RPMI-8402 = system: RPMI-8402
KASUMI-2 = system: KASUMI-2
DND-41 = system: DND-41
JURKAT = system: JURKAT
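Also: ALL cell lines in 384-well plates, five doses spanning 10,000-fold, each plate scaled between vehicle and 100 µmol/L benzalkonium chloride controls, sDSS an adapted area-under-curve metric.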

Row | SMILES | selective drug sensitivity score (CCRF-HSB2) | selective drug sensitivity score (NALL-1) | selective drug sensitivity score (COG-LL-402h) | selective drug sensitivity score (SUP-B15) | selective drug sensitivity score (KARPAS-45) | selective drug sensitivity score (MOLT-4) | selective drug sensitivity score (PF-382) | selective drug sensitivity score (P30-OHKUBO) | selective drug sensitivity score (HPB-ALL) | selective drug sensitivity score (ALL-SIL) | selective drug sensitivity score (MN-60) | selective drug sensitivity score (RCH-ACV) | selective drug sensitivity score (SEM cells) | selective drug sensitivity score (MHH-CALL-2) | selective drug sensitivity score (LC4-1) | selective drug sensitivity score (KASUMI-10) | selective drug sensitivity score (RPMI-8402) | selective drug sensitivity score (KASUMI-2) | selective drug sensitivity score (DND-41) | selective drug sensitivity score (JURKAT)
1 | COC(=O)C[C@](O)(CCCC(C)(C)O)C(=O)O[C@@H]1C(OC)=C[C@]23CCCN2CCc2cc4c(cc2[C@H]13)OCO4 [Omacetaxine] (top concentration 10000 nM) | 4.92 | -6.78 | 7.92 | 7.82 | 3.72 | 3.32 | 0.62 | 3.12 | -4.48 | -1.88 | -3.88 | 7.22 | 4.22 | 3.82 | 1.52 | 4.82 | 3.92 | 10.8 | -2.78 | -0.48
2 | C1=N/C2=N/c3ccc(OCCN4CCCC4)c(c3)COC/C=C/COCc3cccc(c3)C(=C1)N2 [Pacritinib] (top concentration 10000 nM) | -3.5 | -8.4 | 2.9 | -3.7 | -2.9 | -7.3 | -7.5 | 1.2 | -5.7 | -3.6 | -9.6 | 9.2 | 1.5 | -7.9 | -5.6 | 2.2 | -5.7 | -2.3 | -4.7 | -8
3 | Cc1[nH]c2ccccc2c1CCNCc1ccc(/C=C/C(=O)NO)cc1 [Panobinostat] (top concentration 1000 nM) | 5.24 | -0.46 | 14.6 | 10.2 | 10.7 | 2.94 | 4.34 | 6.64 | 10.1 | 6.04 | -1.46 | 14.1 | 3.94 | 8.44 | 5.84 | 7.74 | 4.14 | 14.3 | 5.04 | 1.04
4 | Cc1ccc(Nc2nccc(N(C)c3ccc4c(C)n(C)nc4c3)n2)cc1S(N)(=O)=O [Pazopanib] (top concentration 10000 nM) | 4.34 | -1.26 | -1.26 | -0.96 | 1.74 | -1.06 | 1.74 | 5.14 | 0.64 | 2.64 | -0.86 | 10.5 | 4.54 | 6.24 | 5.24 | 2.24 | 2.44 | 3.44 | 0.04 | 2.84
5 | Nc1nc2[nH]cc(CCc3ccc(C(=O)N[C@@H](CCC(=O)O)C(=O)O)cc3)c2c(=O)[nH]1 [Pemetrexed] (top concentration 10000 nM) | 28.2 | 12.2 | 7.98 | 28 | 9.98 | 21.5 | 12.1 | 26.4 | 9.98 | 15.5 | 11.6 | 28.8 | 25.6 | 18.7 | 21 | 19.1 | 24.8 | 19.3 | 18.6 | 15.6
6 | Cc1ccc(C(=O)Nc2ccc(CN3CCN(C)CC3)c(C(F)(F)F)c2)cc1C#Cc1cnc2cccnn12 [Ponatinib] (top concentration 1000 nM) | 34.4 | -3.08 | 10.2 | 31.8 | 5.02 | 4.32 | 6.62 | 9.02 | -2.18 | 41.7 | -0.58 | 14.8 | 19.4 | 5.92 | 0.32 | 16 | 2.72 | -1.78 | 1.42 | 1.42
7 | C[C@]12C=CC(=O)C=C1CC[C@@H]1[C@@H]2[C@@H](O)C[C@@]2(C)[C@H]1CC[C@]2(O)C(=O)CO [Prednisolone] (top concentration 10000 nM) | 9.3 | 18 | 16.9 | 28.1 | 12.3 | 1.1 | -1.6 | 15 | 2.2 | 8.9 | -3 | 26.8 | 2.9 | 23.1 | 8.4 | -3 | -1.3 | 13.5 | 29.4 | -2.1
8 | CC(C)(C)c1cc(NC(=O)Nc2ccc(-c3cn4c(n3)sc3cc(OCCN5CCOCC5)ccc34)cc2)no1 [Quizartinib] (top concentration 1000 nM) | -0.12 | -1.02 | -1.52 | 0.38 | 3.68 | -0.82 | 0.98 | 0.68 | 5.18 | 3.48 | -1.52 | 2.08 | 20.7 | 2.38 | 4.78 | 17.8 | 1.18 | -1.52 | 5.38 | -1.52
9 | Nc1cc(F)ccc1NC(=O)/C=C/c1cnn(C/C=C/c2ccccc2)c1 [RGFP966] (top concentration 10000 nM) | 15.9 | 12.2 | 6.84 | 18 | 14.6 | 8.94 | 11.1 | 14 | 11 | 12.4 | 3.04 | 14.8 | 18.7 | 7.84 | 12.2 | 9.44 | 10.5 | 8.24 | 6.84 | 11.2
10 | CNC(=O)c1cc(Oc2ccc(NC(=O)Nc3ccc(Cl)c(C(F)(F)F)c3)c(F)c2)ccn1 [Regorafenib] (top concentration 10000 nM) | 6.14 | 3.24 | 1.24 | 9.14 | 3.44 | 3.24 | 4.34 | 4.04 | 1.34 | 10 | 1.34 | 10.9 | 10 | 1.64 | 6.74 | 7.34 | 3.44 | 10 | 4.44 | 4.04
11 | CN(C)Cc1ccc(S(=O)(=O)n2ccc(/C=C/C(=O)NO)c2)cc1 [Resminostat] (top concentration 10000 nM) | 2.24 | -4.46 | 10.2 | 9.74 | 8.34 | 1.24 | 2.64 | 7.94 | 6.24 | 6.64 | 2.34 | 12.2 | 8.64 | 8.14 | 4.54 | 5.94 | 7.24 | 11.7 | 1.74 | 1.34
12 | COc1cc(OC)c(/C=C/S(=O)(=O)Cc2ccc(OC)c(NCC(=O)O)c2)c(OC)c1 [Rigosertib] (top concentration 10000 nM) | 14.6 | 16.5 | 14.2 | 14.6 | 15.2 | 15.9 | 10.9 | 16.9 | 13.5 | 13.1 | 8.96 | 17.3 | 17.3 | 15.2 | 16.6 | 12 | 13.3 | 14.6 | 9.06 | 14.4
13 | COc1ccc(CCc2nc3cc(-c4c(C)noc4C)ccc3n2C[C@H](C)N2CCOCC2)cc1Cl [SGC-CBP30] (top concentration 25000 nM) | 2.38 | -0.62 | 7.78 | 6.28 | 4.98 | 1.88 | 3.08 | 1.88 | 1.88 | 4.68 | 2.78 | 7.88 | 6.48 | 5.88 | 7.48 | 4.78 | 5.08 | -2.12 | 2.88 | 2.18
14 | CCS(=O)(=O)c1cccc(-c2cc(C(=O)NC3CCN(C)CC3)c(C)c3[nH]c4ncc(C)cc4c23)c1 [TAK-901] (top concentration 1000 nM) | 13.6 | 11.8 | 8.96 | 11 | 8.86 | 10.6 | 7.16 | 12.8 | 5.36 | 15.3 | -2.64 | 10.7 | 9.36 | 7.26 | 10.8 | 9.76 | 6.56 | 7.56 | 0.66 | 1.86
15 | Nc1nc(NC2CC2)cc(-c2cccc(Cl)c2Cl)n1 [TH588] (top concentration 25000 nM) | 8.42 | -0.28 | 3.72 | 7.62 | 8.12 | 9.12 | 6.72 | 4.02 | 3.92 | 14.7 | -0.58 | 3.52 | 8.62 | -0.58 | 8.72 | 6.22 | 5.72 | -0.58 | 5.82 | 15.2
16 | CC(=O)Nc1ccc(C(=O)Nc2ccccc2N)cc1 [Tacedinaline] (top concentration 1000 nM) | 2.98 | -0.02 | 0.38 | 4.58 | 2.08 | 0.08 | -0.02 | 2.58 | -0.02 | 6.08 | -0.02 | 0.48 | 4.08 | 7.68 | 1.18 | 0.98 | 1.58 | -0.02 | -0.02 | 0.68
17 | Cn1ncnc1[C@H]1c2n[nH]c(=O)c3cc(F)cc(c23)N[C@@H]1c1ccc(F)cc1 [Talazoparib] (top concentration 1000 nM) | 7.68 | 8.78 | 11.1 | 20.1 | -2.12 | 9.68 | -3.62 | 9.68 | -4.92 | 3.48 | -4.92 | 10.7 | 0.78 | 9.48 | 3.18 | 3.38 | 0.58 | 13.2 | 3.48 | -0.22
18 | COc1cccc2c1c(O)c(C(=O)N(C)c1ccc(C(F)(F)F)cc1)c(=O)n2C [Tasquinimod] (top concentration 10000 nM) | 2.38 | -0.42 | -0.42 | 2.78 | -0.22 | -0.42 | -0.32 | -0.42 | -0.42 | 3.48 | -0.22 | -0.42 | -0.42 | 0.88 | -0.42 | -0.42 | -0.42 | -0.42 | 1.08 | -0.42
